# How the values were obtained:
# COX-2 = biological target: T1, COX-2 (Homo sapiens, UniProt P35354); assay: Human whole blood assay, COX-2 inhibition (PGE2 ELISA after LPS); format: cell-based; conditions: LPS 24 h
# T1 construct: incubation of human blood with lipopolysaccharide (LPS), which induces COX-2 production in the blood; endogenous in cells; host or cells: fresh human whole blood from volunteers, treated with aspirin and then LPS
# T1 sequence (P35354 18-604): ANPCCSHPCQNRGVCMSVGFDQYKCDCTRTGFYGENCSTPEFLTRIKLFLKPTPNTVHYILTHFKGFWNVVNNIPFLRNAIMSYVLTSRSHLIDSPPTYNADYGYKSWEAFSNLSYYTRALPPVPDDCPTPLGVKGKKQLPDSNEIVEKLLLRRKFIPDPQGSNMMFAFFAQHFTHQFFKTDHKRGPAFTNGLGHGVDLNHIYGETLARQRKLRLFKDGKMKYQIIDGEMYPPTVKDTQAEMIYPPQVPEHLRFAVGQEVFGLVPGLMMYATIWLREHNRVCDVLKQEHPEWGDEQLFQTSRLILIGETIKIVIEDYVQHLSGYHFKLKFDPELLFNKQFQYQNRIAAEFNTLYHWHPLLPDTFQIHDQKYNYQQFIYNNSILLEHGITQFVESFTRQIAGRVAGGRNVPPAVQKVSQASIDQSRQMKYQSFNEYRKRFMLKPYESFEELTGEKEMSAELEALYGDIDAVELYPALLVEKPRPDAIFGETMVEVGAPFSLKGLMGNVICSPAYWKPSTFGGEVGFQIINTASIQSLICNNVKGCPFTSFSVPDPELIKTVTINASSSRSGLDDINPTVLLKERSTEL
# Description: In Vivo Evaluation of Cyclooxygenase-2 (COX-2) Inhibition Activity
# The COX-2 inhibition activities of the compounds illustrated in the examples are determined by the following method.
# Human whole blood provides a protein and cell rich milieu appropriate for the study of biochemical efficacy of anti-inflammatory compounds such as selective COX-2 inhibitors. […] This is correlating with the observation that COX-2 inhibitors have no effect on prostaglandin E2 (PGE2) production in normal blood. These inhibitors are active only after incubation of human blood with lipopolysaccharide (LPS), which induces COX-2 production in the blood.
# Fresh blood is collected in tubes containing potassium EDTA by vein puncture from make volunteers. The subjects should have no apparent inflammatory conditions and not taken NSAIDs for at least 7 days prior to blood collection. Blood is treated with aspirin in vitro (10 μg/ml, at time zero) to inactivate COX-1, and then with LPS (10 μg/ml) along with test agents or vehicle. The blood is incubated for 24 h at 37° C., after which the tubes are centrifuged, the plasma is separated and stored at −80° C. (J. Pharmacol. Exp. Ther, 271, 1705, 1994; Proc. Natl. Acad. Sci. USA., 96, 7563, 1999). The plasma is assayed for PGE2 using Cayman ELISA kit as per the procedure outlined by the manufacturer (Cayman Chemicals, Ann Arbor, USA).
# TNF-α = TNF-α production in LPS-stimulated human whole blood; format: cell-based; conditions: LPS 4 h
# Description: Tumor Necrosis Factor Alpha (TNF-α)
# This assay determines the effect of test compounds on the production of TNF-α in human whole blood. TNF-α assay is carried out as described by Armin hatzelmann and Christian Schudt (J Pharm Exp Ther 297, 261, 2001). Compounds are tested for their ability to inhibit the activity of TNF-α in human whole blood. The test compounds are pre-incubated for 15 minutes at 37° C. and then stimulated with Lipopolysaccharide (Salmonella abortus equi, 1 μg/ml) for 4 h at 37° C. in 5% CO2. The levels of TNF-α are estimated using Enzyme linked Immunosorbent assay performed in a 96 well format as per the procedure of the manufacturer (Cayman Chemical, Ann Arbor, USA).
melting point [°C],SMILES,also measured
192 to 195,"COc1cc(-n2c(-c3ccc(SC)cc3)nc(SC)c(C#N)c2=O)cc(OC)c1OC [Example 13, 5-cyano-1-(3,4,5-trimethoxyphenyl)-4-(methylthio)-2-[4-(methylthio)phenyl]-6-oxo-1,6-dihydropyrimidine]",inhibition at 0.25 µM (COX-2): 33.5%
213 to 215,"CSc1ccc(-c2nc(SC)c(C#N)c(=O)n2-c2ccc(Br)cc2)cc1 [Example 15, 1-(4-bromophenyl)-5-cyano-4-(methylthio)-2-[4-(methylthio)phenyl]-6-oxo-1,6-dihydropyrimidine]",inhibition at 0.1 µM (TNF-α): 18.4%
258 to 260,"CSc1nc(-c2ccccc2)n(-c2ccc(C)cc2)c(=O)c1C#N [Example 23, 5-cyano-1-(4-methylphenyl)-4-(methylthio)-6-oxo-2-phenyl-1,6-dihydropyrimidine]",–
> 250,"CSc1nc(-c2cccnc2)n(-c2ccc(C)c(C)c2)c(=O)c1C#N [Example 39, 5-cyano-4-(methylthio)-1-(3,4-dimethylphenyl)-6-oxo-2-pyridin-3-yl-1,6-dihydropyrimidine]",–
> 250,"CSc1nc(-c2ccncc2)n(-c2ccc(C)cc2)c(=O)c1C#N [Example 36, 5-cyano-4-(methylthio)-1-(4-methylphenyl)-6-oxo-2-pyridin-4-yl-1,6-dihydropyrimidine]",–
138 to 141,"CCCCc1ccc(-n2c(-c3ccc(SC)cc3)nc(SC)c(C#N)c2=O)cc1 [Example 24, 1-(4-n-butylphenyl)-5-cyano-4-(methylthio)-2-[4-(methylthio)phenyl]-6-oxo-1,6-dihydropyrimidine]",–
301 to 303,"CSc1nc(-c2ccncc2)n(-c2ccc(F)cc2)c(=O)c1C#N [Example 25, 5-cyano-1-(4-fluorophenyl)-4-(methylthio)-6-oxo-2-pyridin-4-yl-1,6-dihydropyrimidine]",inhibition at 1 µM (TNF-α): 59.6%
199 to 205,"CNc1nc(-c2ccc(SC)cc2)n(-c2ccc(C)c(C)c2)c(=O)c1C#N [Example 55, 5-cyano-1-(3,4-dimethylphenyl)-4-(methylamino)-2-[4-(methylthio)phenyl]-6-oxo-1,6-dihydropyrimidine]",inhibition at 1 µM (COX-2; 1 μM): 8.2%; inhibition at 1 µM (TNF-α): 54.4%
> 285,"Cc1ccc(-n2c(-c3ccc(S(C)(=O)=O)cc3)nc(O)c(C#N)c2=O)cc1C [Example 53, 5-cyano-1-(3,4-dimethylphenyl)-4-hydroxy-2-[4-(methylsulfonyl)phenyl]-6-oxo-1,6-dihydropyrimidine]",–
247 to 248,"CSc1nc(-c2ccccn2)n(-c2ccc(C)cc2)c(=O)c1C#N [Example 34, 5-cyano-4-(methylthio)-1-(4-methylphenyl)-6-oxo-2-pyridin-2-yl-1,6-dihydropyrimidine]",–
203 to 205,"CSc1ccc(-c2nc(SC)c(C#N)c(=O)n2-c2ccc(C)cc2C)cc1 [Example 19, 5-cyano-1-(2,4-dimethylphenyl)-4-(methylthio)-2-[4-(methylthio)phenyl]-6-oxo-1,6-dihydropyrimidine]",–
223 to 225,"CCc1ccc(-n2c(-c3ccc(SC)cc3)nc(SC)c(C#N)c2=O)cc1 [Example 14, 5-cyano-1-(4-ethylphenyl)-4-(methylthio)-2-[4-(methylthio)phenyl]-6-oxo-1,6-dihydropyrimidine]",inhibition at 0.25 µM (COX-2): 28.2%

# Continued, compound first:
SMILES,melting point [°C],also measured
"CS(=O)(=O)c1ccc(-n2c(-c3ccc(F)cc3)nc(O)c(C#N)c2=O)cc1 [Example 52, 5-cyano-2-(4-fluorophenyl)-4-hydroxy-1-[4-(methylsulfonyl)phenyl]-6-oxo-1,6-dihydropyrimidine]",> 285,–
"CCc1ccc(-n2c(-c3cccnc3)nc(SC)c(C#N)c2=O)cc1 [Example 38, 5-cyano-4-(methylthio)-1-(4-ethylphenyl)-6-oxo-2-pyridin-3-yl-1,6-dihydropyrimidine]",207 to 209,–
"Cc1ccc(-n2c(-c3ccc(S(C)(=O)=O)cc3)nc(S(C)(=O)=O)c(C(N)=O)c2=O)cc1 [Example 44, 5-carboxamido-1-(4-methylphenyl)-4-(methylsulfonyl)-2-[4-(methylsulfonyl)phenyl]-6-oxo-1,6-dihydropyrimidine]",260 to 262,–
"CS(=O)(=O)c1ccc(-n2c(-c3ccc(F)cc3)nc(S(C)(=O)=O)c(C(N)=O)c2=O)cc1 [Example 48, 5-carboxamido-2-(4-fluorophenyl)-4-(methylsulfonyl)-1-[4-(methylsulfonyl)phenyl]-6-oxo-1,6-dihydropyrimidine]",237 to 241,–
"CCc1ccc(-n2c(-c3ccccn3)nc(SC)c(C#N)c2=O)cc1 [Example 33, 5-cyano-4-(methylthio)-1-(4-ethylphenyl)-6-oxo-2-pyridin-2-yl-1,6-dihydropyrimidine]",172 to 175,–
"COc1ccc(-n2c(-c3ccccn3)nc(SC)c(C#N)c2=O)cc1 [Example 31, 5-cyano-4-(methylthio)-1-(4-methoxyphenyl)-6-oxo-2-pyridin-2-yl-1,6-dihydropyrimidine]",246 to 253,inhibition at 0.1 µM (TNF-α): 20.2%
"COc1ccc(-n2c(-c3cccnc3)nc(SC)c(C#N)c2=O)cc1 [Example 40, 5-cyano-4-(methylthio)-1-(4-methoxyphenyl)-6-oxo-2-pyridin-3-yl-1,6-dihydropyrimidine]",230 to 233,–
"CCOc1ccc(-n2c(-c3ccncc3)nc(SC)c(C#N)c2=O)cc1 [Example 35, 5-cyano-4-(methylthio)-1-(4-ethoxyphenyl)-6-oxo-2-pyridin-4-yl-1,6-dihydropyrimidine]",201 to 204,–
"CSc1nc(-c2ccccn2)n(-c2ccc(C)c(C)c2)c(=O)c1C#N [Example 32, 5-cyano-4-(methylthio)-1-(3,4-dimethylphenyl)-6-oxo-2-pyridin-2-yl-1,6-dihydropyrimidine]",218 to 223,inhibition at 0.1 µM (TNF-α): 17.9%
"Cc1ccc(-n2c(-c3ccc(S(C)(=O)=O)cc3)nc(N3CCNCC3)c(C(N)=O)c2=O)cc1 [Example 45, 5-carboxamido-1-(4-methylphenyl)-2-[4-(methylsulfonyl)phenyl]-6-oxo-4-piperazin-1-yl-1,6-dihydropyrimidine]",269 to 275,–
"Cc1ccc(-n2c(-c3ccc(S(C)(=O)=O)cc3)nc(N3CCOCC3)c(C(N)=O)c2=O)cc1 [Example 47, 5-carboxamido-1-(4-methylphenyl)-2-[4-(methylsulfonyl)phenyl]-4-morpholin-4-yl-6-oxo-1,6-dihydropyrimidine]",226 to 228,–
"CNc1nc(-c2ccc(S(C)(=O)=O)cc2)n(-c2ccc(C)cc2)c(=O)c1C(N)=O [Example 46, 5-carboxamido-4-(methylamino)-1-(4-methylphenyl)-2-[4-(methylsulfonyl)phenyl]-6-oxo-1,6-dihydropyrimidine]",> 300,–
"CSc1nc(-c2ccncc2)n(-c2ccc(C(C)C)cc2)c(=O)c1C#N [Example 37, 5-cyano-4-(methylthio)-1-(4-isopropylphenyl)-6-oxo-2-pyridin-4-yl-1,6-dihydropyrimidine]",173 to 175,–
"Cc1ccc(-n2c(-c3ccc(S(C)(=O)=O)cc3)nc(S(C)(=O)=O)c(C(N)=O)c2=O)cc1C [Example 51, 5-carboxamido-1-(3,4-dimethylphenyl)-4-(methylsulfonyl)-2-[4-(methylsulfonyl)phenyl]-6-oxo-1,6-dihydropyrimidine]",245 to 248,–
